Reference: PubChem BioAssay AID328 (DTP/NCI, 2004)
Where “and” joins values, the source holds several entries; their conditions need not be identical. Equal entries are not always repeated. Inconclusive results and toxic doses are left out.

System: BDF1 mice, P388 leukemia ip, median survival T/C
Test: NCI In Vivo Anticancer Drug Screen. Data for tumor model P388 Leukemia (intraperitoneal) in B6D2F1 (BDF1) mice
Settings: endpoint: median survival time, higher = longer survival
Summary of the method: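 Each value expresses how treatment altered survival: treated-mouse outcome over vehicle-mouse outcome, both groups bearing the transplanted tumour.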

[1] = dose: 100.0 mg/kg/injection, schedule: Q01DX009 (ip), vehicle: saline with Tween-80
[2] = dose: 25.0 mg/kg/injection, schedule: Q01DX009 (ip), vehicle: saline with Tween-80
[3] = dose: 50.0 mg/kg/injection, schedule: Q01DX009 (ip), vehicle: saline with Tween-80
[4] = dose: 100.0 mg/kg/injection, schedule: Q04DX003 (ip), vehicle: saline

Compound: CCOC(=O)CC(COC)C(C(=O)OCC)C(=O)OCC (stereo not given)
- T/C (dose: 25.0 mg/kg/injection, schedule: Q01DX009 (ip), vehicle: other): 95 % of control
- T/C (dose: 50.0 mg/kg/injection, schedule: Q01DX009 (ip), vehicle: other): 121 % of control
- T/C (dose: 50.0 mg/kg/injection, schedule: Q04DX003 (ip), vehicle: other): 122 % of control
- T/C (dose: 100.0 mg/kg/injection, schedule: Q01DX009 (ip), vehicle: other): 92 % of control
- T/C (dose: 100.0 mg/kg/injection, schedule: Q04DX003 (ip), vehicle: other): 122 % of control
- T/C (dose: 200.0 mg/kg/injection, schedule: Q01DX009 (ip), vehicle: other): 100 % of control
- T/C (dose: 200.0 mg/kg/injection, schedule: Q04DX003 (ip), vehicle: other): 122 % of control
- T/C (dose: 400.0 mg/kg/injection, schedule: Q04DX003 (ip), vehicle: other): 100 % of control

Compound: O=C1c2c(O)ccc(O)c2C(=O)c2c(NCCNCCO)ccc(NCCNCCO)c21
- T/C (dose: 0.78 mg/kg/injection, schedule: Q01DX009 (ip), vehicle: water): 270 % of control
- T/C (dose: 1.56 mg/kg/injection, schedule: Q01DX009 (ip), vehicle: water): 181 % of control
- T/C (dose: 3.13 mg/kg/injection, schedule: Q01DX009 (ip), vehicle: water): 90 % of control

Compound: Cc1ccc(C2(C#N)CCCC2)cc1
- T/C [1]: 104 % of control
- T/C (dose: 200.0 mg/kg/injection, schedule: Q01DX009 (ip), vehicle: saline with Tween-80): 113 % of control

Compound: Nc1ccn(CC(=O)c2cccs2)c(=O)n1
- T/C [2]: 100 % of control
- T/C [3]: 115 % of control
- T/C [1]: 100 % of control
- T/C (dose: 100.0 mg/kg/injection, schedule: Q04DX003 (ip), vehicle: saline with Tween-80): 90 % of control
- T/C (dose: 200.0 mg/kg/injection, schedule: Q04DX003 (ip), vehicle: saline with Tween-80): 95 % of control

Compound: O=c1[nH]cnc2[nH]ccc12
- T/C (dose: 6.25 mg/kg/injection, schedule: Q01DX009 (ip), vehicle: saline with Tween-80): 99 % of control
- T/C (dose: 12.5 mg/kg/injection, schedule: Q01DX009 (ip), vehicle: saline with Tween-80): 103 % of control
- T/C [2]: 96 % of control
- T/C [3]: 99 % of control

Compound: Cn1c(=O)c2[nH]c(CCCc3nc4c([nH]3)c(=O)n(C)c(=O)n4C)nc2n(C)c1=O
- T/C (dose: 25.0 mg/kg/injection, schedule: Q01DX009 (ip), vehicle: saline): 90 % of control
- T/C (dose: 50.0 mg/kg/injection, schedule: Q01DX009 (ip), vehicle: saline): 89 % of control
- T/C (dose: 50.0 mg/kg/injection, schedule: Q04DX003 (ip), vehicle: saline): 100 % of control
- T/C (dose: 100.0 mg/kg/injection, schedule: Q01DX009 (ip), vehicle: saline): 96 % of control and 122 % of control
- T/C [4]: 108 % of control

Compound: CCOC(CN(Cc1ccc(OC)c(OCc2ccccc2)c1)S(=O)(=O)c1ccc(C)cc1)OCC
- T/C (dose: 25.0 mg/kg/injection, schedule: Q01DX009 (ip), vehicle: water): 89 % of control
- T/C (dose: 50.0 mg/kg/injection, schedule: Q01DX009 (ip), vehicle: water): 99 % of control
- T/C (dose: 100.0 mg/kg/injection, schedule: Q01DX009 (ip), vehicle: water): 92 % of control
- T/C (dose: 200.0 mg/kg/injection, schedule: Q01DX009 (ip), vehicle: water): 112 % of control
- T/C (dose: 400.0 mg/kg/injection, schedule: Q01DX009 (ip), vehicle: water): 99 % of control

Compound: CCOc1ccc(S(=O)(=O)O)c2cccnc12
- T/C [4]: 105 % of control
- T/C (dose: 200.0 mg/kg/injection, schedule: Q04DX003 (ip), vehicle: saline): 105 % of control
- T/C (dose: 400.0 mg/kg/injection, schedule: Q04DX003 (ip), vehicle: saline): 105 % of control
